Test results as given in patent US20090239846A1, “Novel Compounds” (Glaxo Group Limited, priority 2005, published 2009).
Structures can show the parent of a compound that is named as a salt. Where two headings read alike, the source gives them in different places.

Assays:
[1] = target: T1, Recombinant human p38α (Homo sapiens, UniProt Q16539); assay: Fluorescence anisotropy kinase binding assay (standard or low volume); settings: for active in the assay (pIC50, p38α binding): 12 nM p38α, 5 nM fluorescent ligand
T1 construct: GST; made in house
How it was run: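 Activated GST-tagged recombinant human p38α (pre-activated with MBP-MKK6 DD) at 12 nM final with 5 nM rhodamine green-labelled pyridinylimidazole tracer in pH 7.5 HEPES/CHAPS/DTT/MgCl2 buffer. Test compound 0.28 nM–16.6 μM or 0.02 nM–25 μM final, 3% or 1.7% DMSO; 30–60 min at room temperature. Fluorescence anisotropy read (ex 485/em 535 nm) for Ki.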

[2] = system: IL-8 production by human neutrophils; assay: TNF-stimulated IL-8 production from human neutrophils; type: cell-based; settings: Neutrophil
[3] = system: influx of neutrophils to the lung in LPS-challenged rats; assay: Rat LPS neutrophilia model; type: in vivo; settings: LPS aerosol, lavage 4 hours later, in at least one of the range of conditions tested, significance p<0.05
How it was run: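 Rats pretreated 15 min–24 h with compound or vehicle, given intratracheally (200 ul, isoflurane anaesthesia) as suspension in various vehicles, then exposed to LPS aerosol (100 ug/ml) 15 min. BAL 4 h later; Diffquick-stained differential counts give % inhibition of neutrophils versus no-compound controls at a set concentration and pretreatment time.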

[4] = bound, not more than 50% inhibition at 100 nM, read-out: IC50
[5] = ends given as 'less than' / 'greater than', read-out: IC50, broad range of data upon multiple runs
[6] = bound, read-out: apparent pIC50 (converted)

T1 sequence (Q16539 whole entry): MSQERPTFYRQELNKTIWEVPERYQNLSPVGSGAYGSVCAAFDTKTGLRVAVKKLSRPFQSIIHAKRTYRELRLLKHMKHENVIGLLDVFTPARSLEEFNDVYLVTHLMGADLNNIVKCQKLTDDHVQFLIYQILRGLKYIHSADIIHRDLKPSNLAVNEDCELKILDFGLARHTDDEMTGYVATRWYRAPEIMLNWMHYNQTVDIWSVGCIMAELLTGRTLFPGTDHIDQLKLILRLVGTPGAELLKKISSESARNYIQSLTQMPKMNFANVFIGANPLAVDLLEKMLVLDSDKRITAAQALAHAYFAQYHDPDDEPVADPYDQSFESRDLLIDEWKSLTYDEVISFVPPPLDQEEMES

melting point | active in the assay (pIC50, p38α binding) [1] | IC50 [2, 4] | Compound | further results
112 to 115 °C |  |  | CCCCN(CCCC)CCCNc1nc(-c2cc(C(=O)NC)ccc2C)c2c(n1)N(c1c(F)cccc1F)C(=O)NC2 [Example 171, 3-[2-{[3-(dibutylamino)propyl]amino}-8-(2,6-difluorophenyl)-7-oxo-5,6,7,8-tetrahydropyrimido[4,5-d]pyrimidin-4-yl]-N,4-dimethylbenzamide] | 
166 to 170 °C (dec.) |  |  | CNC(=O)c1ccc(C)c(-c2nc(NCCCNC(C)(C)C)nc3c2CNC(=O)N3c2c(F)cccc2F)c1 [Example 170, 3-[8-(2,6-difluorophenyl)-2-({3-[(1,1-dimethylethyl)amino]propyl}amino)-7-oxo-5,6,7,8-tetrahydropyrimido[4,5-d]pyrimidin-4-yl]-N,4-dimethylbenzamide] | 
 | active | > 100 nM | CCN(CC)C(=O)c1ccc(C)c(-c2nc(S(C)(=O)=O)nc3c2CNC(=O)N3c2c(F)cccc2F)c1 [156(b), 3-[8-(2,6-difluorophenyl)-2-(methylsulfonyl)-7-oxo-5,6,7,8-tetrahydropyrimido[4,5-d]pyrimidin-4-yl]-N,N-diethyl-4-methylbenzamide] | 
153 to 157 °C (dec.) |  |  | CNC(=O)c1ccc(C)c(-c2nc(NCCCNC(C)C)nc3c2CNC(=O)N3c2c(F)cccc2F)c1 [Example 168, 3-[8-(2,6-difluorophenyl)-2-({3-[(1-methylethyl)amino]propyl}amino)-7-oxo-5,6,7,8-tetrahydropyrimido[4,5-d]pyrimidin-4-yl]-N,4-dimethylbenzamide] | 
136 to 139 °C (dec.) |  |  | CNC(=O)c1ccc(C)c(-c2nc(NCCNC(C)C)nc3c2CNC(=O)N3c2c(F)cccc2F)c1 [Example 167, 3-[8-(2,6-difluorophenyl)-2-({2-[(1-methylethyl)amino]ethyl}amino)-7-oxo-5,6,7,8-tetrahydropyrimido[4,5-d]-pyrimidin-4-yl]-N,4-dimethylbenzamide] | 
164 to 168 °C (dec.) |  |  | CNC(=O)c1ccc(C)c(-c2nc(N3CCN(C)CC3)nc3c2CNC(=O)N3c2c(F)cccc2F)c1 [Example 169, 3-[8-(2,6-difluorophenyl)-2-(4-methyl-1-piperazinyl)-7-oxo-5,6,7,8-tetrahydropyrimido[4,5-d]pyrimidin-4-yl]-N,4-dimethylbenzamide] | 
205 to 209 °C (dec.) |  |  | CNC(=O)c1ccc(C)c(-c2nc(NC3CCN(C)CC3)nc3c2CNC(=O)N3c2c(F)cccc2F)c1 [Example 173, 3-{8-(2,6-difluorophenyl)-2-[(1-methyl-4-piperidinyl)amino]-7-oxo-5,6,7,8-tetrahydropyrimido[4,5-d]pyrimidin-4-yl}-N,4-dimethylbenzamide] | 
 | active | > 100 nM | Cc1ccc(C(=O)NCC2CC2)cc1-c1nc(N(C)CCN)nc2c1CNC(=O)N2c1c(F)cccc1F [4(c), 3-[2-[(2-Aminoethyl)(methyl)amino]-8-(2,6-difluorophenyl)-7-oxo-5,6,7,8-tetrahydropyrimido[4,5-d]pyrimidin-4-yl]-N-(cyclopropylmethyl)-4-methylbenzamide] | 
 | active | > 100 nM | CCN(CC)C(=O)c1ccc(C)c(-c2nc(SC)nc3c2CNC(=O)N3c2c(F)cccc2F)c1 [156(a)] | 
203 to 207 °C (dec.) |  |  | CNc1nc(-c2cc(NC(=O)c3ccsc3)ccc2C)c2c(n1)N(c1c(F)cccc1F)C(=O)NC2 [Example 14, N-{3-[8-(2,6-difluorophenyl)-2-(methylamino)-7-oxo-5,6,7,8-tetrahydropyrimido[4,5-d]pyrimidin-4-yl]-4-methylphenyl}-3-thiophenecarboxamide] | 
 |  | > 100 nM | CCCNC(=O)c1ccc(-c2nc(NCCN(C)C)nc3c2CNC(=O)N3c2c(F)cccc2F)cc1 [Example 98, 4-(8-(2,6-difluorophenyl)-2-{[2-(dimethylamino)ethyl]amino}-7-oxo-5,6,7,8-tetrahydropyrimido[4,5-d]pyrimidin-4-yl)-N-propylbenzamide trifluoroacetate] | IC50 [1, 6]: > 15800 nM

Second part, the molecule before the results:

Compound | melting point | active in the assay (pIC50, p38α binding) [1] | IC50 [2, 4] | further results
Cc1ccc(C(=O)NCc2ccccc2)cc1-c1nc(N2CCC(N)CC2)nc2c1CNC(=O)N2c1c(F)cccc1F [15(c), 3-[2-(4-Amino-1-piperidinyl)-8-(2,6-difluorophenyl)-7-oxo-5,6,7,8-tetrahydropyrimido[4,5-d]pyrimidin-4-yl]-4-methyl-N-(phenylmethyl)benzamide] | 210 to 266 °C (dec.) | active |  | 
CN(C)CCNc1nc(-c2ccc(C(=O)Nc3nccs3)cc2)c2c(n1)N(c1c(F)cccc1F)C(=O)NC2 [96(b), 4-(8-(2,6-difluorophenyl)-2-{[2-(dimethylamino)ethyl]amino}-7-oxo-5,6,7,8-tetrahydropyrimido[4,5-d]pyrimidin-4-yl)-N-1,3-thiazol-2-ylbenzamide] |  | active | > 100 nM | 
Cc1ccc(C(=O)NC(C)C)cc1-c1nc(N2CCN(C(c3ccccc3)c3ccccc3)CC2)nc2c1CNC(=O)N2c1c(F)cccc1F [Example 84, 3-{8-(2,6-difluorophenyl)-2-[4-(diphenylmethyl)-1-piperazinyl]-7-oxo-5,6,7,8-tetrahydropyrimido[4,5-d]pyrimidin-4-yl}-4-methyl-N-(1-methylethyl)benzamide trifluoroacetate] |  |  | > 100 nM | IC50 ([1]; second end given as 'less than', read-out: pIC50, broad range of data upon multiple runs (converted)): > 1780 nM
Cc1ccc(C(=O)NC(C)C)cc1-c1nc(N2CCC(N3CCN(C)CC3)CC2)nc2c1CNC(=O)N2c1c(F)cccc1F [Example 72, 3-{8-(2,6-difluorophenyl)-2-[4-(4-methyl-1-piperazinyl)-1-piperidinyl]-7-oxo-5,6,7,8-tetrahydropyrimido[4,5-d]pyrimidin-4-yl}-4-methyl-N-(1-methylethyl)benzamide] |  |  |  | IC50 ([2]; bound, screened at a different top concentration, read-out: IC50): > 1 nM; inhibition of neutrophilia [3]: statistically significant inhibition of neutrophilia
CSc1nc(-c2cc(C(=O)NCc3ccccc3)ccc2C)c2c(n1)N(c1c(F)cccc1F)C(=O)NC2 [15(a), 3-[8-(2,6-Difluorophenyl)-2-(methylthio)-7-oxo-5,6,7,8-tetrahydropyrimido[4,5-d]pyrimidin-4-yl]-4-methyl-N-(phenylmethyl)benzamide] |  | active |  | IC50 [2, 5]: 40 to 100 nM
CCOc1nc(-c2cc(NC(=O)c3ccsc3)ccc2C)c2c(n1)N(c1c(F)cccc1F)C(=O)NC2 [Example 13] | 199 to 202 °C (dec.) |  |  | 
Cc1ccc(C(=O)NCc2ccccc2)cc1-c1nc(N2CCC(N(C)C(=O)OC(C)(C)C)CC2)nc2c1CNC(=O)N2c1c(F)cccc1F [Example 147, 1,1-dimethylethyl {1-[8-(2,6-difluorophenyl)-4-(2-methyl-5-{[(phenylmethyl)amino]carbonyl}phenyl)-7-oxo-5,6,7,8-tetrahydropyrimido[4,5-d]pyrimidin-2-yl]-4-piperidinyl}methylcarbamate] | 146 to 150 °C (dec.) |  |  | 
Cc1ccc(C(=O)NCc2ccccc2)cc1-c1nc(S(C)(=O)=O)nc2c1CNC(=O)N2c1c(F)cccc1F [15(b), 3-[8-(2,6-Difluorophenyl)-2-(methylsulfonyl)-7-oxo-5,6,7,8-tetrahydropyrimido[4,5-d]pyrimidin-4-yl]-4-methyl-N-(phenylmethyl)benzamide] |  | active | > 100 nM | 
Cc1ccc(NC(=O)c2ccsc2)cc1-c1nc(N(C)C)nc2c1CNC(=O)N2c1c(F)cccc1F [Example 12, N-{3-[8-(2,6-difluorophenyl)-2-(dimethylamino)-7-oxo-5,6,7,8-tetrahydropyrimido[4,5-d]pyrimidin-4-yl]-4-methylphenyl}-3-thiophenecarboxamide] | 214 to 215 °C |  |  | 
Cc1ccc(C(=O)NCc2ccccc2)cc1-c1nc(NCCN(C)C(=O)OC(C)(C)C)nc2c1CNC(=O)N2c1c(F)cccc1F [19(a), 1,1-Dimethylethyl (2-{[8-(2,6-difluorophenyl)-4-(2-methyl-5-{[(phenylmethyl)amino]carbonyl}phenyl)-7-oxo-5,6,7,8-tetrahydropyrimido[4,5-d]pyrimidin-2-yl]amino}ethyl)methylcarbamate] |  |  |  | IC50 [2, 5]: 40 to 100 nM; IC50 [1, 6]: > 15800 nM
Cc1ccc(C(=O)Nc2ccc(C)c(-c3nc(S(C)(=O)=O)nc4c3CNC(=O)N4c3c(F)cccc3F)c2)cc1F [23(d), N-[3-[8-(2,6-difluorophenyl)-2-(methylsulfonyl)-7-oxo-5,6,7,8-tetrahydropyrimido[4,5-d]pyrimidin-4-yl]-4-methylphenyl]-3-fluoro-4-methylbenzamide] |  | active | > 100 nM | 
Cc1ccc(C(=O)NCc2ccccc2)cc1-c1nc(NC2CC(C)(C)NC(C)(C)C2)nc2c1CNC(=O)N2c1c(F)cccc1F [Example 16, 3-{8-(2,6-Difluorophenyl)-7-oxo-2-[(2,2,6,6-tetramethyl-4-piperidinyl)amino]-5,6,7,8-tetrahydropyrimido[4,5-d]pyrimidin-4-yl}-4-methyl-N-(phenylmethyl)benzamide] | 160 to 165 °C (dec.) |  |  | 
CCOc1nc(-c2cc(NC(=O)c3ccc(C)c(F)c3)ccc2C)c2c(n1)N(c1c(F)cccc1F)C(=O)NC2 [Example 25] | 257.3 to 262.5 °C |  |  | 
